{"source": "ChEMBL document CHEMBL2401683", "about": "“Discovery of novel andrographolide derivatives as cytotoxic agents” (2013)", "key": {"KB": {"system": "KB", "assay": "Growth inhibition of human KB cells after 72 hrs by SRB assay", "format": "functional"}, "[1]": {"assay": "Growth inhibition of human KBVIN cells after 72 hrs by SRB assay", "format": "functional"}, "DU-145": {"system": "DU-145", "assay": "Growth inhibition of human DU145 cells after 72 hrs by SRB assay", "format": "functional", "details": "DU-145, 72 h"}, "A549": {"system": "A549", "assay": "Growth inhibition of human A549 cells after 72 hrs by SRB assay", "format": "functional", "details": "A549, 72 h"}, "PC-3 [2]": {"system": "PC-3", "assay": "Induction of metaphase cell accumulation in human PC3 cells at 30 to 60 uM after 24 hrs by DAPI staining-based confocal microscopic analysis", "format": "functional"}, "PC-3 [3]": {"system": "PC-3", "assay": "Disruption of microtubule dynamics in human PC3 cells at 30 to 60 uM after 24 hrs by DAPI staining-based confocal microscopic analysis", "format": "functional, cell-based"}}, "note": "Calls of active or inactive are those of the source. The calls are words filed in the database; no cut-off is given here.", "data": [{"smiles": "C=C1CC[C@@H]2[C@](C)(COC(=O)c3cccnc3)[C@H](OC(=O)c3cccnc3)CC[C@@]2(C)[C@@H]1/C=C/C1=CCOC1=O", "values": [{"measurement": "GI50", "setting": "KB", "result": "> 30", "unit": "µM"}, {"measurement": "GI50", "setting": "[1]", "result": "> 30", "unit": "µM"}, {"measurement": "GI50", "setting": "DU-145", "result": "> 30", "unit": "µM"}, {"measurement": "GI50", "setting": "A549", "result": "> 30", "unit": "µM"}]}, {"smiles": "C=C1CC[C@@H]2[C@](C)(COC(=O)CN(C)C)[C@H](OC(=O)CN(C)C)CC[C@@]2(C)[C@@H]1/C=C/C1=CCOC1=O", "values": [{"measurement": "GI50", "setting": "KB", "result": "> 30", "unit": "µM"}, {"measurement": "GI50", "setting": "[1]", "result": "> 30", "unit": "µM"}, {"measurement": "GI50", "setting": "DU-145", "result": "> 30", "unit": "µM"}, {"measurement": "GI50", "setting": "A549", "result": "> 30", "unit": "µM"}]}, {"smiles": "C=C1CC[C@@H]2[C@]3(C)CO[C@@H](c4ccc(OC)cc4)O[C@@H]3CC[C@@]2(C)[C@@H]1/C=C/C1=CCOC1=O", "values": [{"measurement": "GI50", "setting": "KB", "result": 32.9, "unit": "µM"}, {"measurement": "GI50", "setting": "[1]", "result": "> 30", "unit": "µM"}, {"measurement": "GI50", "setting": "DU-145", "result": 32.1, "unit": "µM"}, {"measurement": "GI50", "setting": "A549", "result": 26.9, "unit": "µM"}]}, {"smiles": "C=C1CC[C@@H]2[C@]3(C)CO[C@@H](c4ccc(C(F)(F)F)cc4)O[C@@H]3CC[C@@]2(C)[C@@H]1/C=C/C1=CCOC1=O", "values": [{"measurement": "GI50", "setting": "KB", "result": 23.4, "unit": "µM"}, {"measurement": "GI50", "setting": "[1]", "result": 18.3, "unit": "µM"}, {"measurement": "GI50", "setting": "DU-145", "result": 17.2, "unit": "µM"}, {"measurement": "GI50", "setting": "A549", "result": 16.9, "unit": "µM"}]}, {"smiles": "C=C1CC[C@@H]2[C@]3(C)CO[C@@H](c4ccco4)O[C@@H]3CC[C@@]2(C)[C@@H]1/C=C/C1=CCOC1=O", "values": [{"measurement": "GI50", "setting": "KB", "result": 36.4, "unit": "µM"}, {"measurement": "GI50", "setting": "[1]", "result": 32.7, "unit": "µM"}, {"measurement": "GI50", "setting": "DU-145", "result": 32.9, "unit": "µM"}, {"measurement": "GI50", "setting": "A549", "result": 34, "unit": "µM"}]}, {"smiles": "C=C1CC[C@@H]2[C@](C)(COC(=O)C3CCCN3C(=O)OC(C)(C)C)[C@H](OC(=O)C3CCCN3C(=O)OC(C)(C)C)CC[C@@]2(C)[C@@H]1/C=C/C1=CCOC1=O", "note": "(stereo not given in full)", "values": [{"measurement": "GI50", "setting": "KB", "result": 12.5, "unit": "µM"}, {"measurement": "GI50", "setting": "[1]", "result": 11.1, "unit": "µM"}, {"measurement": "GI50", "setting": "DU-145", "result": 11.1, "unit": "µM"}, {"measurement": "GI50", "setting": "A549", "result": 10.2, "unit": "µM"}]}, {"smiles": "C=C1CC[C@@H]2[C@](C)(CO)[C@H](O)CC[C@@]2(C)[C@@H]1C/C=C1/C(=O)OC[C@H]1O", "note": "[ANDROGRAPHOLIDE]", "values": [{"measurement": "GI50", "setting": "KB", "result": 13.2, "unit": "µM"}, {"measurement": "GI50", "setting": "[1]", "result": 13.8, "unit": "µM"}, {"measurement": "GI50", "setting": "DU-145", "result": 16, "unit": "µM"}, {"measurement": "GI50", "setting": "A549", "result": 13.4, "unit": "µM"}, {"measurement": "Activity", "setting": "PC-3 [2]", "result": "Active"}]}, {"smiles": "C=C1CC[C@@H]2[C@](C)(COC(=O)CCCCC3CCSS3)[C@H](O)CC[C@@]2(C)[C@@H]1/C=C/C1=CCOC1=O", "note": "(stereo not given in full)", "values": [{"measurement": "GI50", "setting": "KB", "result": "> 30", "unit": "µM"}, {"measurement": "GI50", "setting": "[1]", "result": "> 30", "unit": "µM"}, {"measurement": "GI50", "setting": "DU-145", "result": "> 30", "unit": "µM"}, {"measurement": "GI50", "setting": "A549", "result": "> 30", "unit": "µM"}]}, {"smiles": "C=C1CC[C@@H]2[C@](C)(COC(=O)CCCCC3CCSS3)[C@H](OC(=O)CCCCC3CCSS3)CC[C@@]2(C)[C@@H]1/C=C/C1=CCOC1=O", "note": "(stereo not given in full)", "values": [{"measurement": "GI50", "setting": "KB", "result": 11.7, "unit": "µM"}, {"measurement": "GI50", "setting": "[1]", "result": 12.9, "unit": "µM"}, {"measurement": "GI50", "setting": "DU-145", "result": 11.8, "unit": "µM"}, {"measurement": "GI50", "setting": "A549", "result": 10.2, "unit": "µM"}]}, {"smiles": "C=C1CC[C@@H]2[C@]3(C)CO[C@@H](c4ccc(N(C)C)cc4)O[C@@H]3CC[C@@]2(C)[C@@H]1/C=C/C1=CCOC1=O", "values": [{"measurement": "GI50", "setting": "KB", "result": "> 30", "unit": "µM"}, {"measurement": "GI50", "setting": "[1]", "result": "> 30", "unit": "µM"}, {"measurement": "GI50", "setting": "DU-145", "result": "> 30", "unit": "µM"}, {"measurement": "GI50", "setting": "A549", "result": 33, "unit": "µM"}]}, {"smiles": "C=C1CC[C@@H]2[C@](C)(COC(=O)c3cnccn3)[C@H](OC(=O)c3cnccn3)CC[C@@]2(C)[C@@H]1/C=C/C1=CCOC1=O", "values": [{"measurement": "GI50", "setting": "KB", "result": 8.24, "unit": "µM"}, {"measurement": "GI50", "setting": "[1]", "result": 9.19, "unit": "µM"}, {"measurement": "GI50", "setting": "DU-145", "result": 8.63, "unit": "µM"}, {"measurement": "GI50", "setting": "A549", "result": 4.87, "unit": "µM"}]}, {"smiles": "C=C1CC[C@@H]2[C@]3(C)CO[C@@H](c4ccc(O)cc4)O[C@@H]3CC[C@@]2(C)[C@@H]1/C=C/C1=CCOC1=O", "values": [{"measurement": "GI50", "setting": "KB", "result": 23.7, "unit": "µM"}, {"measurement": "GI50", "setting": "[1]", "result": 22.6, "unit": "µM"}, {"measurement": "GI50", "setting": "DU-145", "result": 19.1, "unit": "µM"}, {"measurement": "GI50", "setting": "A549", "result": 22.8, "unit": "µM"}]}, {"smiles": "C=C1CC[C@@H]2[C@](C)(COC(=O)C3CCN(C)CC3)[C@H](OC(=O)C3CCN(C)CC3)CC[C@@]2(C)[C@@H]1/C=C/C1=CCOC1=O", "values": [{"measurement": "GI50", "setting": "KB", "result": 2.55, "unit": "µM"}, {"measurement": "GI50", "setting": "[1]", "result": 3, "unit": "µM"}, {"measurement": "Activity", "setting": "PC-3 [3]", "result": "Active"}, {"measurement": "GI50", "setting": "DU-145", "result": 2.27, "unit": "µM"}, {"measurement": "GI50", "setting": "A549", "result": 1.46, "unit": "µM"}, {"measurement": "Activity", "setting": "PC-3 [2]", "result": "inactive"}]}, {"smiles": "C=C1CC[C@@H]2[C@](C)(COC(=O)CCN3CCOCC3)[C@H](O)CC[C@@]2(C)[C@@H]1/C=C/C1=CCOC1=O", "values": [{"measurement": "GI50", "setting": "KB", "result": "> 30", "unit": "µM"}, {"measurement": "GI50", "setting": "[1]", "result": 30, "unit": "µM"}, {"measurement": "GI50", "setting": "DU-145", "result": 30.3, "unit": "µM"}, {"measurement": "GI50", "setting": "A549", "result": "> 30", "unit": "µM"}]}, {"smiles": "C=C1CC[C@@H]2[C@](C)(COC(=O)CCN3CCOCC3)[C@H](OC(=O)CCN3CCOCC3)CC[C@@]2(C)[C@@H]1/C=C/C1=CCOC1=O", "values": [{"measurement": "GI50", "setting": "KB", "result": "> 30", "unit": "µM"}, {"measurement": "GI50", "setting": "[1]", "result": "> 30", "unit": "µM"}, {"measurement": "GI50", "setting": "DU-145", "result": "> 30", "unit": "µM"}, {"measurement": "GI50", "setting": "A549", "result": "> 30", "unit": "µM"}]}, {"smiles": "C=C1CC[C@@H]2[C@](C)(COC(=O)C3CCCN3C(=O)OC(C)(C)C)[C@H](O)CC[C@@]2(C)[C@@H]1/C=C/C1=CCOC1=O", "note": "(stereo not given in full)", "values": [{"measurement": "GI50", "setting": "KB", "result": 20.1, "unit": "µM"}, {"measurement": "GI50", "setting": "[1]", "result": 17.9, "unit": "µM"}, {"measurement": "GI50", "setting": "DU-145", "result": 18.8, "unit": "µM"}, {"measurement": "GI50", "setting": "A549", "result": 18.8, "unit": "µM"}]}, {"smiles": "C=C1CC[C@@H]2[C@](C)(COC(=O)CCN(C)C)[C@H](OC(=O)CCN(C)C)CC[C@@]2(C)[C@@H]1/C=C/C1=CCOC1=O", "values": [{"measurement": "GI50", "setting": "KB", "result": "> 30", "unit": "µM"}, {"measurement": "GI50", "setting": "[1]", "result": 31.7, "unit": "µM"}, {"measurement": "GI50", "setting": "DU-145", "result": 25.3, "unit": "µM"}, {"measurement": "GI50", "setting": "A549", "result": 32, "unit": "µM"}]}, {"smiles": "C=C1CC[C@@H]2[C@]3(C)CO[C@@H](c4ccc([N+](=O)[O-])cc4)O[C@@H]3CC[C@@]2(C)[C@@H]1/C=C/C1=CCOC1=O", "values": [{"measurement": "GI50", "setting": "KB", "result": "> 30", "unit": "µM"}, {"measurement": "GI50", "setting": "[1]", "result": "> 30", "unit": "µM"}, {"measurement": "GI50", "setting": "DU-145", "result": "> 30", "unit": "µM"}, {"measurement": "GI50", "setting": "A549", "result": 30.8, "unit": "µM"}]}]}
